Assays:
[1] = Inhibition of Mycobacterium tuberculosis PtpB
[2] = tested on: Mycobacterium tuberculosis; experiment: Antimycobacterial activity against Mycobacterium tuberculosis H37Rv; assay type: functional

O=C(O)c1cc(-c2ccc(-c3ccc(F)c(C(F)(F)F)c3)cc2C2CCCCC2)on1
Ki [1]: 220 nM

Cc1sc(N)nc1C(=O)O
MIC [2]: 0.06 µg/mL

COC(=O)c1nc(N)sc1Cc1ccccc1
MIC [2]: 0.06 µg/mL

Cc1ccc2nc(C)c(C(=O)NCc3cccs3)n2c1
MIC [2]: 0.19 µM

COc1ccc2nc(C)cc(OCC(=O)Nc3ccccc3OC)c2c1
MIC [2]: 0.7 µM

c1cc2c(s1)CCOC21CCN(Cc2ccc3c(c2)OCCO3)CC1
MIC [2]: 0.38 µM

O=C(NC12CC3CC(CC(C3)C1)C2)c1cc2cc(Cl)ccc2[nH]1
MIC [2]: 0.47 µM

CCc1ccc([C@@H]2C[C@H](C(F)(F)F)n3ncc(C(=O)NCc4ccc(OC)cc4)c3N2)cc1
MIC [2]: 0.25 µM

Cc1cccc(-c2nc(Nc3ccncn3)c3c(C)csc3n2)n1
MIC [2]: 0.76 µM

O=P(O)(O)C(F)(F)c1ccc(-c2ccc(F)c(C(F)(F)F)c2)cc1C1CCCCC1
Ki [1]: 690 nM

CCCCCCCCCCN1CCCC(O/N=C2\[C@H](C)C[C@@](C)(OC)[C@H](O[C@@H]3O[C@H](C)C[C@H](N(C)C)[C@H]3O)[C@@H](C)C(=O)[C@@H](C)C(=O)O[C@H](CC)[C@@](C)(O)[C@H](O)[C@H]2C)C1 (some centres not stated)
MIC [2]: 0.125 µM

COc1ccc(CCNc2cc(-c3ccccc3)nc3ncnn23)cc1
MIC [2]: 0.94 µM
